Reference: ChEMBL document CHEMBL5137114, “Discovery of IHMT-MST1-58 as a Novel, Potent, and Selective MST1 Inhibitor for the Treatment of Type 1/2 Diabetes” (J Med Chem, 2022)
The source made the active and inactive calls. The calls are words filed in the database; no cut-off is given here.

What was measured:
[1] = target: T1, Serine/threonine-protein kinase 4 (Homo sapiens, UniProt Q13043); assay: Inhibition of recombinant full length N-terminal GST -tagged human MST1 expressed in baculovirus infected Sf9 insect cells using KKSRGDYMTMQIG as substrate incubated for 1 hr in presence of ATP by ADP-Glo luminescent assay
T1 sequence (Q13043 whole entry): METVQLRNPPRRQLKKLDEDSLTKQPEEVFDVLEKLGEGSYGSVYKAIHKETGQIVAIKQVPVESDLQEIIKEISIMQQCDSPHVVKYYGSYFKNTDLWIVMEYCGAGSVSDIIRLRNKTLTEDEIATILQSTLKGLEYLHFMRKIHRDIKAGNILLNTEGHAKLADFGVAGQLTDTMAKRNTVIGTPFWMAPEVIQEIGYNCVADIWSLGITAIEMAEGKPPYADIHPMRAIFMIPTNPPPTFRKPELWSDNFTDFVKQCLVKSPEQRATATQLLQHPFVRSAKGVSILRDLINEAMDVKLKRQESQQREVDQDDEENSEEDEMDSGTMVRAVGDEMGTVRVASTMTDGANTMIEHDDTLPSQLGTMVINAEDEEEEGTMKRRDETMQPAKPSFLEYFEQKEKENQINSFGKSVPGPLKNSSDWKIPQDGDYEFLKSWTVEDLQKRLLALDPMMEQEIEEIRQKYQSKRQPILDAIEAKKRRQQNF

[2] = test system: Serine/threonine-protein kinase 4 (Rattus norvegicus); assay: Inhibition of INF-gamma-stimulated MST1 phosphorylation in rat INS1 cells incubated for 12 hrs by Western blotting analysis; settings: dose 0.1-10 µM, DDE = dose-dependent effect
[3] = test system: RAW264.7; assay: Inhibition of MST1 in mouse RAW264.7 cells assessed as reduction in H2O2-stimulated MST1/MST2 autophosphorylation at T183/T180 residues preincubated for 2 hrs followed by H2O2 addition for 30 mins by Western blotting analysis; type: cell-based; settings: dose 0.1-10 µM, time 2.5 hrs, DDE = dose-dependent effect
[4] = test system: Mus musculus; assay: Antidiabetic activity against multi low dose STZ-induced C57BL/6J mouse model of type 1 diabetes assessed as increase in water consumption at 50 mg/kg, po administered upto 79 days in presence of metformin; type: functional, organism-based; settings: time <= 79.0 day
[5] = test system: Serine/threonine-protein kinase 4 (Rattus norvegicus); assay: Inhibition of IL-1beta-stimulated MST1 phosphorylation in rat RIN-m5F cells incubated for 12 hrs by Western blotting analysis; settings: dose 0.1-10 µM, DDE = dose-dependent effect
[6] = target: T2, Serine/threonine-protein kinase 3 (Homo sapiens) (UniProt Q13188); assay: Inhibition of recombinant full length N-terminal GST -tagged human MST2 expressed in baculovirus infected Sf9 insect cells using KKSRGDYMTMQIG as substrate incubated for 1 hr in presence of ATP by ADP-Glo luminescent assay relative to control; settings: concentration not given here
T2 sequence (whole entry): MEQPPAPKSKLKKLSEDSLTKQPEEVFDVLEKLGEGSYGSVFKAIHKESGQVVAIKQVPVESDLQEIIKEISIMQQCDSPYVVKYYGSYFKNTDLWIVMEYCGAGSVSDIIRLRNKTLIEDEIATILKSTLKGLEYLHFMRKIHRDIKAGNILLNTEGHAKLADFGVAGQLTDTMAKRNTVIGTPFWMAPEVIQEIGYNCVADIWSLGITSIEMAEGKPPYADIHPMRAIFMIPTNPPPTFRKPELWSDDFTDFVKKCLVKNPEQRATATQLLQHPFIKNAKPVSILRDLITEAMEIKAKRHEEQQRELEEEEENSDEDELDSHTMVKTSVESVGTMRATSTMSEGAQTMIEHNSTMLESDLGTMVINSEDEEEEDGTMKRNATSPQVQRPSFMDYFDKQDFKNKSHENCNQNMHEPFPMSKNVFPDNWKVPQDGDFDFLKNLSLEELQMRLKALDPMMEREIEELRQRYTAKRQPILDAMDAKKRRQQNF

[7] = test system: Serine/threonine-protein kinase 4 (Rattus norvegicus); assay: Inhibition of TNF-alpha-stimulated MST1 phosphorylation in rat INS1 cells incubated for 12 hrs by Western blotting analysis; settings: dose 0.1-10 µM, DDE = dose-dependent effect
[8] = test system: Mus musculus; assay: Antidiabetic activity against 12 hrs fasted high fat diet-STZ-induced C57BL/6J mouse model of type 2 diabetes assessed as decrease in fasting blood glucose level at 50 mg/kg, po qd administered measured immediately in presence of metformin (reference value: 20.3 mmol/L); type: functional
[9] = Toxicity in multi low dose STZ-induced C57BL/6J mouse model of type 1 diabetes assessed as effect on pancreas morphology at 50 mg/kg, po qd by H and E staining based analysis; type: organism-based; settings: in vivo
[10] = test system: INS1; assay: Cytotoxicity against rat INS1 cells at 10 uM incubated for 72 hrs by Cell Titer-Glo assay; type: toxicity, cell-based; settings: ins1, 72 h
[11] = test system: Serine/threonine-protein kinase 4 (Rattus norvegicus); assay: Inhibition of TNF-alpha-stimulated MST1 in rat INS1 cells assessed as reduction in MOB1 autophosphorylation incubated for 12 hrs by Western blotting analysis; settings: dose 0.1-10 µM, DDE = dose-dependent effect
[12] = Toxicity in high multi low dose STZ-induced C57BL/6J mouse model of Type 1 diabetes assessed as effect on body weight at 50 mg/kg, po qd in presence of metformin; type: organism-based; settings: in vivo
[13] = test system: Mus musculus; assay: Antidiabetic activity against high fat diet-STZ-induced C57BL/6J mouse model of type 2 diabetes assessed as improvement in food intake at 50 mg/kg, po qd administered upto 106 days in presence of metformin; type: functional, organism-based; settings: time <= 106.0 day
[14] = Oral bioavailability in Beagle dog at 10 mg/kg measured up to 24 hrs by LC-MS/MS analysis; type: ADME, organism-based, Canis lupus familiaris; settings: in vivo
[15] = Toxicity in multi low dose STZ-induced C57BL/6J mouse model of Type 1 diabetes assessed as effect on body weight at 50 mg/kg, po qd; type: organism-based; settings: in vivo
[16] = Half life in Beagle dog at 1 mg/kg, iv measured up to 12 hrs by LC-MS/MS analysis; type: ADME, organism-based, Canis lupus familiaris; settings: in vivo
[17] = test system: Serine/threonine-protein kinase 4 (Rattus norvegicus); assay: Inhibition of IL-1beta[…]-stimulated MST1 in rat RIN-m5F cells assessed as reduction in MOB1 autophosphorylation incubated for 12 hrs by Western blotting analysis; settings: dose 0.1-10 µM, DDE = dose-dependent effect
[18] = AUC (0 to t) in Sprague-Dawley rat at 1 mg/kg, iv measured up to 12 hrs by LC-MS/MS analysis; type: ADME, organism-based; design: dose 1 mg/kg, time < 12 hrs, route iv; settings: in vivo
[19] = test system: INS1; assay: Protection against IFN-gamma-induced cell damage in rat INS1 cells assessed as increase in cell survival at 0.03 to 0.3 uM incubated for 48 hrs by Cell Titer-Glo assay; type: functional, cell-based; settings: dose 0.03-0.3 µM
[20] = test system: Mus musculus; assay: Antidiabetic activity in 12 to 14 hrs fasted multi low dose STZ-induced C57BL/6J mouse model of type 1 diabetes assessed as reduction on blood glucose at 50 mg/kg, po qd pretreated with compound followed by glucose challenge and measured upto 180 mins by IPGTT assay; type: functional, organism-based
[21] = test system: Mus musculus; assay: Antidiabetic activity against 12 hrs fasted high fat diet-STZ-induced C57BL/6J mouse model of type 2 diabetes assessed as decrease in fasting blood glucose level at 50 mg/kg, po qd measured immediately (reference value: 20.3 mmol/L); type: functional

IC50 [1]: 23 nM | inhibition [2]: Dde | inhibition [5]: Dde | inhibition [6]: 52% | inhibition [7]: Dde | inhibition [11]: Dde | bioavailability [14]: 106% | half-life [16]: 6.47 h | inhibition [17]: Dde | AUCt [18]: 2553 ng·h/mL
SMILES: Cc1ccccc1C1C(=O)N(C)c2cnc(Nc3ccc(S(N)(=O)=O)cc3)nc2N1C (stereo unspecified)
inhibition [3]: Dde | Activity [4]: Active | Activity [8]: 20.3 mmol/L | Activity [9]: Non-Toxic | Activity [10]: Non-Toxic | Activity [12]: Non-Toxic | Activity [13]: Active | Activity [15]: Non-Toxic | Activity [19]: Active | Activity [20]: Active | Activity [21]: 20.2 mmol/L
